Data on 25 compounds can be found in US20250179059A1 (The Regents of the University of California, priority 2021, published 2025).

In experiment [1] the target is T1, human BRD4 bromodomain II (Homo sapiens, UniProt O60885).
T1 construct: human BRD4 bromodomain II [based on Genbank NM_058243, residues 349-460]; host or cells: E. coli
The experiment in a line: Bromodomain binding assay (AlphaScreen), BRD4 BDII. In a few lines: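 E. coli-expressed N-terminal His6-tagged human BRD4 BDII (residues 349-460) or BDI (residues 44-170) was preincubated 30 min at room temperature with compound (10-point, 3-fold) in pH 7.5 HEPES buffer, 1% DMSO. Displacement of biotinylated tetra-acetylated H4 1-21 peptide was read by AlphaScreen, and IC50 came from curve fitting.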
A general note: Alpha assays give light when donor and acceptor beads are brought close together.

The subject of experiment [2] is human SKM-1 acute myeloid leukemia cells. Put plainly: SKM-1 antiproliferation cell-based assay (ATPlite). The following applies: Homo sapiens. In a few lines: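 Log-phase cells in RPMI 1640/15% FBS were seeded at 34722 cells/mL and exposed for 4 days to nine-concentration DMSO serial dilutions in triplicate. Viability was read as ATP luminescence (ATPlite 1step), and IC50 values came from variable-slope non-linear regression.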
Background: ATP-based viability assays read luminescence as a measure of living cells.

Setting [3] is: AlphaScreen assay, Table C2, read-out: BRD4 BDII IC50.
[4] abbreviates: SKM-1, 96 h, SKM-1 antiproliferation assay, 4 days, Table C2.
The mark [5] stands for this setting: BRD4 BDII AlphaScreen assay, read-out: BRD4 BD2 IC50.
Where [6] appears, read: SKM-1, SKM-1 antiproliferation assay.

Structures are written as SMILES. pIC50: −log10 of the molar value. Where two headings read alike, the source gives them in different places. Where only a bound is given, the exact number is not on record here.

Turning to `CC(=O)Nc1c(F)cc(-c2cccc(-c3cc(N4CCNCC4)no3)c2O)cc1OC1CC1` [Example 135, N-(3-cyclopropoxy-5-fluoro-2′-hydroxy-3′-(3-(piperazin-1-yl)isoxazol-5-yl)-[1,1′-biphenyl]-4-yl)acetamide 2,2,2-trifluoroacetate], the pIC50 in experiment [1] (setting [3]) is 8.00 to 9.00. Also, the GI50 in experiment [2] (setting [4]) lay in the range of 300 to 3000 nM.
As to `Cc1cc(-c2ccc(-n3ccn(C)c3=O)c(Cl)c2)c(O)c(-c2cnc(N)c(N3CCC4(CCN4C(C)C)C3)c2)n1` (centres unmarked) [Example 975, 1-(4-(6′-amino-3-hydroxy-5′-(1-isopropyl-1,6-diazaspiro[3.4]octan-6-yl)-6-methyl-[2,3′-bipyridin]-4-yl)-2-chlorophenyl)-3-methyl-1H-imidazol-2(3H)-one], the pIC50 in experiment [1] (setting [5]) was 8.00 to 9.00. In addition, the GI50 in experiment [2] (setting [6]) is 0.3 to 30 nM.
For the compound `Cn1ccn(-c2ccc(-c3cc(F)cc(-c4ccnc(N5CC[C@](C)(N)C5)c4)c3O)cc2Cl)c1=O` [Example 711, (S)-1-(3′-(2-(3-amino-3-methylpyrrolidin-1-yl)pyridin-4-yl)-3-chloro-5′-fluoro-2′-hydroxy-[1,1′-biphenyl]-4-yl)-3-methyl-1,3-dihydro-2H-imidazol-2-one], the pIC50 in experiment [1] (setting [3]) was 9.00 to 11.00. Further, the GI50 in experiment [2] (setting [4]) was 0.3 to 30 nM.
The corresponding values for `Cn1ccn(-c2ccc(-c3cc(F)cc(-c4cncc(N5CC[C@@H](O)[C@H](N)C5)c4)c3O)cc2Cl)c1=O` [Example 495, 1-(3′-(5-((3R,4R)-3-amino-4-hydroxypiperidin-1-yl)pyridin-3-yl)-3-chloro-5′-fluoro-2′-hydroxy-[1,1′-biphenyl]-4-yl)-3-methyl-1H-imidazol-2(3H)-one] are 8.00 to 9.00 and 30 to 300 nM.
The matching figures for `Cn1ccn(-c2ccc(-c3cc(F)cc(-c4cc(Cl)cc(N5CCN(C(C)(C)C)CC5)c4)c3O)cc2Cl)c1=O` [Example 827, 1-(3″-(4-(tert-butyl)piperazin-1-yl)-3,5″-dichloro-5′-fluoro-2′-hydroxy-[1,1′:3′,1″-terphenyl]-4-yl)-3-methyl-1H-imidazol-2(3H)-one]: 9.00 to 11.00 and 0.3 to 30 nM.
The corresponding values for `COC(=O)c1ncc(-c2cc(F)cc(-c3ccc(N4CCN(C)C4=O)c(Cl)c3)c2O)cc1N1CCNCC1` [Example 376, Methyl 5-(3′-chloro-5-fluoro-2-hydroxy-4′-(3-methyl-2-oxoimidazolidin-1-yl)-[1,1′-biphenyl]-3-yl)-3-(piperazin-1-yl)picolinate] are below 7.00 and at least 3000 nM.
On to `CN1CCN(c2ccc(-c3cccc(-c4cnnc(N5CCNCC5)c4)c3O)cc2Cl)C1=O` [Example 343, 1-(3-chloro-2′-hydroxy-3′-(6-(piperazin-1-yl)pyridazin-4-yl)-[1,1′-biphenyl]-4-yl)-3-methylimidazolidin-2-one], for which the pIC50 in experiment [1] (setting [3]) was 8.00 to 9.00. Also, in experiment [2] (setting [4]), the GI50 was in the range of 30 to 300 nM.
`CC(C)[C@@H]1CN(c2cc(-c3cc(F)cc(-c4ccc(-n5ccn(C)c5=O)c(Cl)c4)c3O)cc3[nH]ncc23)CCN1` [Example 597, (R)-1-(3-chloro-5′-fluoro-2′-hydroxy-3′-(4-(3-isopropylpiperazin-1-yl)-1H-indazol-6-yl)-[1,1′-biphenyl]-4-yl)-3-methyl-1H-imidazol-2(3H)-one]: in experiment [1] (setting [3]), the pIC50 is 8.00 to 9.00. Also, in experiment [2] (setting [4]), the GI50 lay in the range of 0.3 to 30 nM.
For the compound `O=C1NCCCN1c1ccc(-c2cccc(-c3ccnc(N4CCNCC4)c3)c2O)cc1Cl` [Example 276, 1-(3-chloro-2′-hydroxy-3′-(2-(piperazin-l-yl)pyridin-4-yl)-[1,1′-biphenyl]-4-yl)tetrahydropyrimidin-2(1H)-one], the pIC50 in experiment [1] (setting [3]) is 7.00 to 8.00. The GI50 in experiment [2] (setting [4]) lay in the range of 300 to 3000 nM.
In the case of `[2H]C([2H])([2H])n1ccn(-c2ccc(-c3cc(F)cc(-c4ccnc(N5CCNCC5=O)c4)c3O)cc2Cl)c1=O` [Example 464, 1-(4-(3′-chloro-5-fluoro-2-hydroxy-4′-(3-deuteromethyl-2-oxo-2,3-dihydro-1H-imidazol-1-yl)-[1,1′-biphenyl]-3-yl)pyridin-2-yl)piperazin-2-one], the negative-log IC50 (pIC50) in experiment [1] (setting [3]) was 9.00 to 11.00. In addition, in experiment [2] (setting [4]), the GI50 was 30 to 300 nM.
The matching figures for `Cn1ccn(-c2ccc(-c3cc(F)cc(-c4cncc(N5CCC[C@H](N)C5)c4)c3O)cc2Cl)c1=O` [Example 461, (S)-1-(3′-(5-(3-aminopiperidin-1-yl)pyridin-3-yl)-3-chloro-5′-fluoro-2′-hydroxy-[1,1′-biphenyl]-4-yl)-3-methyl-1,3-dihydro-2H-imidazol-2-one]: 9.00 to 11.00 and 0.3 to 30 nM.
On to `COC(=O)OCOc1c(-c2ccc(-n3ccn(C)c3=O)c(Cl)c2)cc(F)cc1-c1cnc(C)c(N2CCN(C(C)C)CC2)c1` [Example 878], for which the pIC50 in experiment [1] (setting [5]) was below 7.00. In addition, the GI50 in experiment [2] (setting [6]) lay in the range of 0.3 to 30 nM.
As for `C[C@@H]1CN(c2cc(-c3cc(F)cc(-c4ccc(-n5ccn(C)c5=O)c(Cl)c4)c3O)ccn2)CCN1C` [Example 493, (R)-1-(3-chloro-3′-(2-(3,4-dimethylpiperazin-1-yl)pyridin-4-yl)-5′-fluoro-2′-hydroxy-[1,1′-biphenyl]-4-yl)-3-methyl-1H-imidazol-2(3H)-one], the negative logarithm of the IC50 (pIC50) in experiment [1] (setting [3]) was 9.00 to 11.00. In experiment [2] (setting [4]), this compound displayed a GI50 of 0.3 to 30 nM.
The matching figures for `CN1CCN(c2ccc(-c3cccc(-c4cncc(N5CCNCC5)c4)c3O)cc2F)C1=O` [Example 292, 1-(3-fluoro-2′-hydroxy-3′-(5-(piperazin-1-yl)pyridin-3-yl)-[1,1′-biphenyl]-4-yl)-3-methylimidazolidin-2-one]: 8.00 to 9.00 and 30 to 300 nM.
Consider `C#CCN1CCN(c2cc(-c3cc(F)cc(-c4ccc(-n5ccn(C)c5=O)c(Cl)c4)c3O)ccn2)CC1` [Example 669, 1-(3-chloro-5′-fluoro-2′-hydroxy-3′-(2-(4-(prop-2-yn-1-yl)piperazin-1-yl)pyridin-4-yl)-[1,1′-biphenyl]-4-yl)-3-methyl-1H-imidazol-2(3H)-one], for which the pIC50 in experiment [1] (setting [3]) is 9.00 to 11.00. The GI50 in experiment [2] (setting [4]) lay in the range of 30 to 300 nM.
The corresponding values for `CC(=O)Nc1cc(-c2cc(F)cc(-c3ccc(-n4ccn(C)c4=O)c(Cl)c3)c2O)cc(N2CC[C@H](N)C2)n1` [Example 503, (S)-N-(6-(3-aminopyrrolidin-1-yl)-4-(3′-chloro-5-fluoro-2-hydroxy-4′-(3-methyl-2-oxo-2,3-dihydro-1H-imidazol-1-yl)-[1,1′-biphenyl]-3-yl)pyridin-2-yl)acetamide] are 8.00 to 9.00 and 0.3 to 30 nM.
Consider `COc1ncc(-c2nccc(-c3ccc(-n4ccn(C)c4=O)c(Cl)c3)c2O)cc1N1CCN(C(C)(C)C)CC1` [Example 1005, 1-(4-(5′-(4-(tert-butyl)piperazin-1-yl)-3-hydroxy-6′-methoxy-[2,3′-bipyridin]-4-yl)-2-chlorophenyl)-3-methyl-1H-imidazol-2(3H)-one], for which, in experiment [1] (setting [5]), the pIC50 is 8.00 to 9.00. This compound had a GI50 in experiment [2] (setting [6]) of 0.3 to 30 nM.
As to `CC(=O)Nc1ccc(-c2cccc(-c3ccnc(N4CCC(CO)C4)c3)c2O)cc1F` (centres unmarked) [Example 230, N-(3-fluoro-2′-hydroxy-3′-(2-(3-(hydroxymethyl)pyrrolidin-1-yl)pyridin-4-yl)-[1,1′-biphenyl]-4-yl)acetamide], the pIC50 in experiment [1] (setting [3]) was 8.00 to 9.00. The same compound showed a GI50 in experiment [2] (setting [4]) of 300 to 3000 nM.
The matching figures for `CC(=O)Nc1ccc(-c2cccc(-c3cncc(N4CCN[C@H](C)C4)c3)c2O)cc1F` [Example 258]: 8.00 to 9.00 and 30 to 300 nM.
The corresponding values for `CO[C@@H]1COC(=O)N1c1ccc(-c2cc(F)cc(-c3ccnc(N4CCNCC4)c3)c2O)cc1Cl` [Example 507, (R)-3-(3-chloro-5′-fluoro-2′-hydroxy-3′-(2-(piperazin-1-yl)pyridin-4-yl)-[1,1′-biphenyl]-4-yl)-4-methoxyoxazolidin-2-one] are 7.00 to 8.00 and 300 to 3000 nM.
For the compound `Cc1cc(-c2ccc(-n3ccn(C)c3=O)c(Cl)c2)c(O)c(-c2ccnc(N3CC(F)(F)[C@@](C)(O)C3)c2)n1` [Example 1036, (S)-1-(2-chloro-4-(2′-(3,3-difluoro-4-hydroxy-4-methylpyrrolidin-1-yl)-3-hydroxy-6-methyl-[2,4′-bipyridin]-4-yl)phenyl)-3-methyl-1,3-dihydro-2H-imidazol-2-one], in experiment [1] (setting [5]), the pIC50 is 8.00 to 9.00. The same compound displayed a GI50 in experiment [2] (setting [6]) of 30 to 300 nM.
With `Cc1cc(-c2cc(F)cc(-c3ccnc(N4CCNCC4)c3)c2O)ccc1N1CCN(C)C1=O` [Example 380, 1-(5′-fluoro-2′-hydroxy-3-methyl-3′-(2-(piperazin-1-yl)pyridin-4-yl)-[1,1′-biphenyl]-4-yl)-3-methylimidazolidin-2-one], in experiment [1] (setting [3]), the pIC50 was 8.00 to 9.00. This compound registered a GI50 in experiment [2] (setting [4]) of 30 to 300 nM.
Turning to `COc1ncc(-c2cc(F)cc(-c3ccc(-n4ccn(C)c4=O)c(Cl)c3)c2O)cc1N1CCN(C2CCC2)CC1` [Example 880], the pIC50 in experiment [1] (setting [5]) is 9.00 to 11.00. This compound yielded a 50% growth inhibitory concentration (GI50) in experiment [2] (setting [6]) of 0.3 to 30 nM.
The matching figures for `COc1ncc(-c2cc(F)cc(-c3ccc(-n4cc(C)n(C)c4=O)c(Cl)c3)c2O)cc1N1CCN(C(C)(C)C)CC1` [Example 982, 1-(3′-(5-(4-(tert-butyl)piperazin-1-yl)-6-methoxypyridin-3-yl)-3-chloro-5′-fluoro-2′-hydroxy-[1,1′-biphenyl]-4-yl)-3,4-dimethyl-1H-imidazol-2(3H)-one]: 8.00 to 9.00 and 30 to 300 nM.
Regarding `Cn1ccn(-c2ccc(-c3cc(F)cc(-c4cncc(N5CCC(C)(O)C5)c4)c3O)cc2Cl)c1=O` (centres unmarked) [Example 708, 1-(3-chloro-5′-fluoro-2′-hydroxy-3′-(5-(3-hydroxy-3-methylpyrrolidin-1-yl)pyridin-3-yl)-[1,1′-biphenyl]-4-yl)-3-methyl-1H-imidazol-2(3H)-one], the pIC50 in experiment [1] (setting [3]) is 9.00 to 11.00. The compound further gave a GI50 in experiment [2] (setting [4]) of 0.3 to 30 nM.

As a reminder, the pIC50 is the negative decadic logarithm of the IC50, by convention in mol/L. As a reminder, the GI50 is the concentration giving 50% growth inhibition. The low end stands for more potent growth inhibition, the high end for less potent growth inhibition.
